Results taken from publication PMC4805651, “Inhibition of DNA–Topoisomerase I by Acylated Triterpene Saponins from Pittosporum angustifolium Lodd” (Natural Products and Bioprospecting, 2016).

Experiments:
human topoisomerase I = biological target: T1, human topoisomerase I (Homo sapiens, UniProt P11387); assay: DNA relaxation assay on human topoisomerase I (gel based, supercoiled pBR322); format: biochemical; conditions: ±SD, n = 2; relaxation of supercoiled pBR322, 37 °C, 30 min, 10 % DMSO; read-out: IC50 [µM] Topo I
T1 construct: purchased Inspiralis Limited, UK (assay run by the vendor as a service)
T1 sequence (P11387 1-765): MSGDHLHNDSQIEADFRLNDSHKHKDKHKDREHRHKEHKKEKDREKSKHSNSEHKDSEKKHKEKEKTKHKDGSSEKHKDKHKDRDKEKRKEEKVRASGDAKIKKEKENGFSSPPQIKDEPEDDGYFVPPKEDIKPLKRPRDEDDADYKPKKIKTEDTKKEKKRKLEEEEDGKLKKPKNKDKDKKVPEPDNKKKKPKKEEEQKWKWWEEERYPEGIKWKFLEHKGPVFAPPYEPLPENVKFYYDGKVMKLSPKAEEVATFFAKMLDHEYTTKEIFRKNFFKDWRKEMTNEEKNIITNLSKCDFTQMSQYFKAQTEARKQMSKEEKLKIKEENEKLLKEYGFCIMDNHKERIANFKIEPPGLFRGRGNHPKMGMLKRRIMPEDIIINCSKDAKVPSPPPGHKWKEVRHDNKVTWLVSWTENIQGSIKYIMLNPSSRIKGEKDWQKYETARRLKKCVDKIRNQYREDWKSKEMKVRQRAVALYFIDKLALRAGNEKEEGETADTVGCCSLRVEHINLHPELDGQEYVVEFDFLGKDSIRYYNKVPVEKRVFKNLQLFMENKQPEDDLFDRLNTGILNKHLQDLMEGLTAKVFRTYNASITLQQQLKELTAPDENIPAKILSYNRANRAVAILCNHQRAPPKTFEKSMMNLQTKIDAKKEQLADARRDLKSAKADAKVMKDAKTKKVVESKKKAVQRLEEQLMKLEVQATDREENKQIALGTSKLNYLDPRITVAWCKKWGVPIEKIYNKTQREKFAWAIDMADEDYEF
Experimental: The relaxation assay on human topoisomerase I was carried out by Inspiralis Limited®, UK, according to their SOP (standard operating procedure). All compounds were dissolved in DMSO and then diluted to yield concentration ranges from 1 nM to 1 mM. […] 1 U (the amount of enzyme required to completely relax the substrate) was incubated with 0.5 µg supercoiled plasmid DNA (pBR322) at 37 °C for 30 min in a 30 µL reaction mixture of 20 mM Tris HCL (pH 7.5), 200 mM NaCl, 0.25 mM EDTA and 5 % glycerol. The reaction was stopped by adding 30 µL chloroform/iso-amyl alcohol (26:1) and 20 µL Stop Dye (40 % sucrose, 100 mM Tris HCl (pH 7.5), 10 mM EDTA, 0.5 μg/mL bromophenol blue) before being loaded on a 0.8 % TAE gel run for 2 h at 80 V. Then bands were visualized by ethidium staining for 10 min and analyzed by documentation equipment (Syngene, Cambridge, UK), gel scanning software (Syngene, GeneTools) and SigmaPlot version 12.3. All assays were carried out in a final DMSO concentration of 10 % and were performed twice.

[1] = test system: 5637: human urinary bladder carcinoma cells; set-up: method as in PMID 24046217, PMID 25069157; conditions: ±SD, ref [3], [5], [10], read-out: IC50 [µM] Cytotoxicity 5637; cited from earlier work
[2] = test system: MCF-7: human breast cancer cells; set-up: method as in PMID 24046217, PMID 25069157; conditions: ±SD, ref [3], [5], [10], read-out: IC50 [µM] Cytotoxicity MCF-7; cited from earlier work
[3] = test system: LN-18: human glioblastoma cells; set-up: method as in PMID 24046217, PMID 25069157; conditions: ±SD, ref [3], [5], [10], read-out: IC50 [µM] Cytotoxicity LN-18; cited from earlier work
[4] = test system: HaCat: human keratinocyte cells; set-up: method as in PMID 24046217, PMID 25069157; conditions: ±SD; HaCaT human keratinocyte cells (non-tumorigenic); ref [3], [5], [10]; read-out: IC50 [µM] Cytotoxicity HaCaT; cited from earlier work

Compound | IC50 (human topoisomerase I) [µM] | IC50 [1] [µM] | IC50 [2] [µM] | IC50 [3] [µM] | IC50 [4] [µM]
CC=C(C)C(=O)OC1CC(C)(C)CC2C3=CCC4C5(C)CCC(OC6OC(C(=O)O)C(OC7OC(CO)C(O)C7O)C(OC7OCC(O)C(O)C7O)C6OC6OC(CO)C(O)C(O)C6O)C(C)(C)C5CCC4(C)C3(C)C(O)C(O)C12CO (centres unmarked) [Compound 1, pittangretoside A] | 7.5 ± 0.6 | 4.1 ± 1 | 25.7 ± 1.9 | 7.6 ± 1.7 | 15.2 ± 0.9
CC=C(C)C(=O)OC1CC(C)(C)CC2C3=CCC4C5(C)CCC(OC6OC(C(=O)O)C(O)C(O)C6OC6OC(CO)C(O)C(O)C6OC6OC(C)C(O)C(O)C6O)C(C)(C)C5CCC4(C)C3(C)C(O)C(O)C12CO (centres unmarked) [Compound 2, pittangretoside D] | 4.8 ± 2.4 | 17.9 ± 1 | 36.6 ± 5.7 | 35.7 ± 5.2 | > 118
CCC(C)C(=O)OCC12C(O)CC(C)(C)CC1C1=CCC3C4(C)CCC(OC5OC(C(=O)O)C(OC6OC(CO)C(O)C6O)C(OC6OCC(O)C(O)C6O)C5OC5OC(CO)C(O)C(O)C5O)C(C)(C)C4CCC3(C)C1(C)C(O)C2O (centres unmarked) [Compound 3, pittangretoside F] | 16.8 ± 0.4 | > 106 |  |  | 
CC=C(C)C(=O)OC1C(OC(C)=O)C2(CO)C(CC1(C)C)C1=CCC3C4(C)CCC(OC5OC(C(=O)O)C(OC6OC(CO)C(O)C6O)C(OC6OCC(O)C(O)C6O)C5OC5OC(CO)C(O)C(O)C5O)C(C)(C)C4CCC3(C)C1(C)C(O)C2O (centres unmarked) [Compound 4, IIIA3] | 8.6 ± 0.1 |  | 19.8 ± 2.2 | 13.4 ± 0.8 | 15.9 ± 1.3
CC=C(C)C(=O)OC1C(OC(C)=O)C(C)(C)CC2C3=CCC4C5(C)CCC(OC6OC(C(=O)O)C(OC7OC(CO)C(O)C7O)C(OC7OCC(O)C(O)C7O)C6OC6OC(CO)C(O)C(O)C6O)C(C)(C)C5CCC4(C)C3(C)C(O)C(O)C21CO (centres unmarked) [Compound 5, pittangretoside N] | 6.5 ± 0.6 |  | 28.7 ± 3.6 | 10.4 ± 2.7 | 34.1 ± 2.8
CCC(C)(OC(C)=O)C(=O)OC1C(OC(C)=O)C(C)(C)CC2C3=CCC4C5(C)CCC(OC6OC(C(=O)O)C(OC7OC(CO)C(O)C7O)C(OC7OCC(O)C(O)C7O)C6OC6OC(CO)C(O)C(O)C6O)C(C)(C)C5CCC4(C)C3(C)C(O)C(O)C21CO (centres unmarked) [Compound 6, pittangretoside O] | 7.5 ± 1.6 |  | 22.9 ± 1.8 | 4.4 ± 0.7 | 19.2 ± 2.1
CCC(C)C(=O)OC1C(OC(C)=O)C2(CO)C(CC1(C)C)C1=CCC3C4(C)CCC(OC5OC(C(=O)O)C(OC6OC(CO)C(O)C6O)C(OC6OCC(O)C(O)C6O)C5OC5OC(CO)C(O)C(O)C5O)C(C)(C)C4CCC3(C)C1(C)C(O)C2O (centres unmarked) [Compound 7, pittangretoside P] | 4.2 ± 0.2 |  | 28.7 ± 3.2 | 7 ± 0.9 | 11.2 ± 0.5
CCC(C)C(=O)OC1CC(C)(C)CC2C3=CCC4C5(C)CCC(OC6OC(C(=O)O)C(OC7OC(CO)C(O)C7O)C(OC7OCC(O)C(O)C7O)C6OC6OC(CO)C(O)C(O)C6O)C(C)(C)C5CCC4(C)C3(C)C(O)C(O)C12CO (centres unmarked) [Compound 8] | 2.8 ± 1.1 |  |  | 3.9 ± 0.1 | 
CC=C(C)C(=O)OC1C(OC(=O)C(C)=CC)C2(CO)C(CC1(C)C)C1=CCC3C4(C)CCC(OC5OC(C(=O)O)C(OC6OC(CO)C(O)C6O)C(OC6OCC(O)C(O)C6O)C5OC5OC(CO)C(O)C(O)C5O)C(C)(C)C4CCC3(C)C1(C)C(O)C2O (centres unmarked) [Compound 9, IIIC4] | 46.5 ± 11.5 |  | 8.9 ± 0.8 | 4.6 ± 0.5 | 2.2 ± 0.5
CC=C(C)C(=O)OC1C(OC(=O)C(C)=CC)C2(CO)C(O)CC3(C)C(=CCC4C5(C)CCC(OC6OC(C(=O)O)C(OC7OC(CO)C(O)C7O)C(OC7OCC(O)C(O)C7O)C6OC6OC(CO)C(O)C(O)C6O)C(C)(C)C5CCC43C)C2CC1(C)C (centres unmarked) [Compound 10, pittangretoside T] | 5 ± 3.3 |  |  |  | 
